Measurements as given in PubChem BioAssay AID248 (DTP/NCI, 2004).
Toxic doses and inconclusive results are not listed. Cut-off read from the data, not from the text of the source: active = T/C of 150% or more; inactive = T/C below 125%. Square brackets hold non-standard residues; d marks the D form. Peptide text beside a SMILES is read from it. * marks the point of attachment. ONb = O=[N+]([O-])c1ccc(CO*)cc1; Cbz = O=C(OCc1ccccc1)*; Nva = CCC[CH](N)C(=O)O; Bn = c1ccc(C*)cc1

Test system: L1210 leukemia ip in BDF1 mice, survival T/C
Assay: NCI In Vivo Anticancer Drug Screen. Data for tumor model L1210 Leukemia (intraperitoneal) in B6D2F1 (BDF1) mice
Conditions: endpoint: mean survival time, higher = longer survival
Outline: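 Value reflects the ratio of survival in compound-treated mice to survival in vehicle-treated controls, with both groups carrying the same transplanted tumor.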

[1] = dose: 100.0 mg/kg/injection, schedule: Q04DX002 (ip), vehicle: Klucel (hydroxypropylcellulose) (HPC)
[2] = dose: 200.0 mg/kg/injection, schedule: Q04DX002 (ip), vehicle: Klucel (hydroxypropylcellulose) (HPC)
[3] = dose: 400.0 mg/kg/injection, schedule: Q04DX002 (ip), vehicle: Klucel (hydroxypropylcellulose) (HPC)
[4] = dose: 100.0 mg/kg/injection, schedule: Q04DX003 (ip), vehicle: saline
[5] = dose: 200.0 mg/kg/injection, schedule: Q04DX003 (ip), vehicle: saline
[6] = dose: 400.0 mg/kg/injection, schedule: Q04DX003 (ip), vehicle: saline
[7] = dose: 100.0 mg/kg/injection, schedule: Q01DX001 (ip), vehicle: saline
[8] = dose: 200.0 mg/kg/injection, schedule: Q01DX001 (ip), vehicle: saline
[9] = dose: 400.0 mg/kg/injection, schedule: Q01DX001 (ip), vehicle: saline
[10] = dose: 100.0 mg/kg/injection, schedule: Q01DX009 (ip), vehicle: Klucel (hydroxypropylcellulose) (HPC)
[11] = dose: 200.0 mg/kg/injection, schedule: Q01DX009 (ip), vehicle: Klucel (hydroxypropylcellulose) (HPC)
[12] = dose: 400.0 mg/kg/injection, schedule: Q01DX009 (ip), vehicle: Klucel (hydroxypropylcellulose) (HPC)
[13] = dose: 100.0 mg/kg/injection, schedule: Q01DX009 (ip), vehicle: saline
[14] = dose: 200.0 mg/kg/injection, schedule: Q01DX009 (ip), vehicle: saline
[15] = dose: 400.0 mg/kg/injection, schedule: Q01DX009 (ip), vehicle: saline

Measured: T/C

CCCCCCCCCCCCCCC(=O)[O][Hg][c]1ccccc1
inactive: dose: 75.0 mg/kg/injection, schedule: Q01DX001 (ip), vehicle: steriod suspending solution 100 % of control

COc1cccc(C(N)=O)c1
inactive: [1] 97 % of control | [2] 97 % of control | [3] 104 % of control

O=C(O)c1nccc2ccccc12
inactive: [4] 96 % of control | [5] 112 % of control | [6] 90 % of control

CCOCCOC(=O)c1ccc(C(N)=NC)cc1
inactive: [7] 91 % of control | [8] 94 % of control | [9] 94 % of control

O=C(Nc1ccccc1)Oc1c(Cl)cc(Cl)cc1Cl
inactive: dose: 0.78 mg/kg/injection, schedule: Q04DX002 (ip), vehicle: Klucel (hydroxypropylcellulose) (HPC) 97 % of control | dose: 1.56 mg/kg/injection, schedule: Q04DX002 (ip), vehicle: Klucel (hydroxypropylcellulose) (HPC) 112 % of control | dose: 3.13 mg/kg/injection, schedule: Q04DX002 (ip), vehicle: Klucel (hydroxypropylcellulose) (HPC) 94 % of control | dose: 6.25 mg/kg/injection, schedule: Q04DX002 (ip), vehicle: Klucel (hydroxypropylcellulose) (HPC) 92 % of control | dose: 12.5 mg/kg/injection, schedule: Q04DX002 (ip), vehicle: Klucel (hydroxypropylcellulose) (HPC) 110 % of control | dose: 25.0 mg/kg/injection, schedule: Q04DX002 (ip), vehicle: Klucel (hydroxypropylcellulose) (HPC) 95 % of control

CC(=O)OCCC(C)Nc1ccnc2cc(Cl)ccc12 (stereo not given)
inactive: dose: 20.0 mg/kg/injection, schedule: Q04DX003 (ip), vehicle: saline with Tween-80 92 % of control | dose: 40.0 mg/kg/injection, schedule: Q04DX003 (ip), vehicle: saline with Tween-80 87 % of control

O=C1NCCCN1
inactive: dose: 100.0 mg/kg/injection, schedule: Q04DX003 (ip), vehicle: saline sonified 104 % of control | dose: 200.0 mg/kg/injection, schedule: Q04DX003 (ip), vehicle: saline sonified 102 % of control | dose: 400.0 mg/kg/injection, schedule: Q04DX003 (ip), vehicle: saline sonified 101 % of control

O=C(O)C(O)C(O)C(O)C(O)CO (stereo not given)
inactive: [4] 106 % of control | [5] 96 % of control | [6] 96 % of control

CN(C)C(=S)SN(C)C(=O)Nc1ccccc1
inactive: dose: 100.0 mg/kg/injection, schedule: Q04DX003 (ip), vehicle: Klucel (hydroxypropylcellulose) (HPC) 105 % of control | dose: 200.0 mg/kg/injection, schedule: Q04DX003 (ip), vehicle: Klucel (hydroxypropylcellulose) (HPC) 109 % of control | dose: 400.0 mg/kg/injection, schedule: Q04DX003 (ip), vehicle: Klucel (hydroxypropylcellulose) (HPC) 107 % of control

Cc1ccc(C(=O)OCC2OC3OC(C)(C)OC3C2OC(=O)c2ccc(C)cc2)cc1 (stereo not given)
inactive: dose: 100.0 mg/kg/injection, schedule: Q01DX001 (ip), vehicle: carboxymethylcellulose (CMC) 90 % of control | dose: 200.0 mg/kg/injection, schedule: Q01DX001 (ip), vehicle: carboxymethylcellulose (CMC) 104 % of control | dose: 400.0 mg/kg/injection, schedule: Q01DX001 (ip), vehicle: carboxymethylcellulose (CMC) 101 % of control

Cc1cc(Cl)ccc1OC(=O)Nc1ccccc1F
inactive: [10] 110 % of control | [11] 98 % of control | [12] 121 % of control

Cc1cc(OC(=O)Nc2ccc(F)c([N+](=O)[O-])c2)cc(C)c1Cl
inactive: [10] 101 % of control | [11] 93 % of control | [12] 95 % of control

N#CCSc1nc(N)nc2nc[nH]c12
inactive: dose: 62.5 mg/kg/injection, schedule: Q01DX Z (ip), vehicle: methylcellulose (MC) 101 % of control | dose: 125.0 mg/kg/injection, schedule: Q01DX Z (ip), vehicle: methylcellulose (MC) 105 % of control

CCOc1ccc(/C=C/c2cc[n+](C)cc2)cc1OC
inactive: dose: 25.0 mg/kg/injection, schedule: Q01DX001 (ip), vehicle: saline with Tween-80 108 % of control | dose: 50.0 mg/kg/injection, schedule: Q01DX001 (ip), vehicle: saline with Tween-80 95 % of control | dose: 100.0 mg/kg/injection, schedule: Q01DX001 (ip), vehicle: saline with Tween-80 93 % of control

O=C(CC(Br)C(=O)c1ccccc1)c1ccccc1 (stereo not given)
inactive: dose: 100.0 mg/kg/injection, schedule: Q01DX009 (ip), vehicle: saline with Tween-80 97 % of control | dose: 200.0 mg/kg/injection, schedule: Q01DX009 (ip), vehicle: saline with Tween-80 97 % of control | dose: 400.0 mg/kg/injection, schedule: Q01DX009 (ip), vehicle: saline with Tween-80 94 % of control

Nc1nc2ncn(C3OC(CO)C(O)C3O)c2c(=O)[nH]1 (stereo not given)
inactive: [7] 105 % of control | [8] 104 % of control | [9] 104 % of control

CC(=O)OCC1OC(N2C(=O)/C(=C/c3ccc(N(C)C)cc3)SC2=S)C(OC(C)=O)C(OC(C)=O)C1OC(C)=O (stereo not given)
inactive: dose: 25.0 mg/kg/injection, schedule: Q01DX005 (ip), vehicle: other 100 % of control | dose: 50.0 mg/kg/injection, schedule: Q01DX005 (ip), vehicle: other 98 % of control | dose: 100.0 mg/kg/injection, schedule: Q01DX005 (ip), vehicle: other 94 % of control | dose: 200.0 mg/kg/injection, schedule: Q01DX005 (ip), vehicle: other 95 % of control | dose: 400.0 mg/kg/injection, schedule: Q01DX005 (ip), vehicle: other 93 % of control

CCCP(=S)(CCC)Oc1ccc([N+](=O)[O-])cc1
inactive: dose: 75.0 mg/kg/injection, schedule: Q01DX001 (ip), vehicle: saline 95 % of control | dose: 150.0 mg/kg/injection, schedule: Q01DX001 (ip), vehicle: saline 98 % of control

NC(=O)Nc1cccc2c1-c1ccccc1C2=O
inactive: dose: 100.0 mg/kg/injection, schedule: Q04DX003 (ip), vehicle: acetone 88 % of control | dose: 400.0 mg/kg/injection, schedule: Q04DX003 (ip), vehicle: acetone 100 % of control

O=P(NCCCl)(NCCCl)c1ccccc1
inactive: [1] 118 % of control | [2] 100 % of control | [3] 96 % of control

COC1C(OC(C)=O)CC(=O)OC(C)C/C=C/C=C\C(O)C(C)CC(CC=O)C1OC1OC(C)C(OC2CC(C)(O)C(OC(=O)CC(C)C)C(C)O2)C(N(C)C)C1O (stereo not given)
inactive: [7] 96 % of control | [9] 90 % of control

C1CC2OC2C1 (stereo not given)
inactive: [13] 104 % of control | dose: 100.0 mg/kg/injection, schedule: Q04DX003 (ip), vehicle: saline with Tween-80 97 % of control | [14] 108 % of control | dose: 200.0 mg/kg/injection, schedule: Q04DX003 (ip), vehicle: saline with Tween-80 100 % of control | [15] 105 % of control | dose: 400.0 mg/kg/injection, schedule: Q04DX003 (ip), vehicle: saline with Tween-80 90 % of control

COc1ccc(/C=C2\CCC3C(=O)CCCC3(C)C2=O)cc1 (stereo not given)
inactive: [13] 95 % of control | [4] 100 % of control | [14] 104 % of control | [5] 117 % of control | [15] 101 % of control | [6] 104 % of control

CC12CCC(=O)C=C1CC(Sc1ccc(N(CCCl)CCCl)cc1)C1C2CCC2(C)C(O)CCC12 (stereo not given)
inactive: dose: 100.0 mg/kg/injection, schedule: Q01DX001 (sc), vehicle: steriod suspending solution 108 % of control | dose: 200.0 mg/kg/injection, schedule: Q01DX001 (sc), vehicle: steriod suspending solution 108 % of control | dose: 400.0 mg/kg/injection, schedule: Q01DX001 (sc), vehicle: steriod suspending solution 100 % of control

CCCC(NC(=O)C(CSCc1ccccc1)NC(=O)OCc1ccccc1)C(=O)OCc1ccc([N+](=O)[O-])cc1 (stereo not given) (Cbz-Cys(Bn)-[Nva]-ONb; configuration not given here)
inactive: dose: 100.0 mg/kg/injection, schedule: Q01DX001 (ip), vehicle: other 90 % of control | dose: 200.0 mg/kg/injection, schedule: Q01DX001 (ip), vehicle: other 90 % of control | dose: 400.0 mg/kg/injection, schedule: Q01DX001 (ip), vehicle: other 89 % of control

O=C(/C=C(\C(=O)c1ccccc1)c1ccccc1)c1ccc(-c2ccccc2)cc1
inactive: [1] 97 % of control | [2] 101 % of control | [3] 93 % of control

O=C1/C(=C/c2ccccc2[N+](=O)[O-])Cc2ccccc21
inactive: dose: 50.0 mg/kg/injection, schedule: Q01DX009 (ip), vehicle: Klucel (hydroxypropylcellulose) (HPC) 107 % of control | [10] 94 % of control | [11] 93 % of control
